Experiments:
FITC-CAR-T = FITC-CAR-T proliferation in lymph nodes after vaccination (CTV-labeled cells); type: in vivo, C57Bl/6 mice; settings: adjuvant alone, 25 ug
Protocol: To assess whether DSPE-PEG-FITC accumulating on lymph node antigen presenting cells would lead to CAR T cell priming and how long this stimulatory effect would last for, at day 1, mice were administered PBS, c-di-GMP (25 ug), DSPE-PEG-FITC (10 nmol), or DSPE-PEG-FITC (10 nmol)+c-di-GMP (25 ug) into wildtype C57Bl/6 mice. After various time points, as indicated in the timeline in FIG. 7A, 2×10^6 CTV-labeled CAR-T cells were transferred into each mouse via tail-vein injection. CAR-T cells were titrated to be a mixture of CAR+ and CAR-cells at 1:1 ratio. After another 48 hours, mice were sacrificed and LNs were removed for FACS analysis.

[1] = Trafficking to and retention in lymph nodes (IVIS imaging); type: in vivo, mice; settings: free FITC control
Protocol: Based on the results of Example 2, it was next determined whether the amphiphilic ligand conjugate DSPE-PEG-FITC could coat antigen presenting cells in lymph nodes (LN) to prime FITC-CAR-T cells in vivo. To assess DSPE-PEG-FITC trafficking to the lymph node and retention and uptake by APCs, C57BIU6 mice received varying doses of DSPE-PEG-FITC. Specifically, inguinal LN, auxiliary LN and lilac LN were harvested 24 hours after administration of 2 nmol, 5 nmol, or 10 nmol doses of DSPE-PEG-FITC was into the tail-veil of the mice. Free FITC was used as control. Mice were sacrificed and LNs were removed at different time point for IVIS imaging (excitation 465 nm, emission 520 nm) to monitor LN retention of FITC signal.
While FITC signal was almost lost at the lowest dose (2 nmol) after 4 days, the signal was retained for more than 21 days at high dose (10 nmol) of DSPE-PEG-FITC (FIG. 3A). Free FITC signal was lost in 24 hours (FIG. 3A).

[2] = mouse, in vivo
Description: One concern was that repeated vaccination may elicit antibody against FITC when conjugated to DSPE-PEG, thus blocking its stimulation to CAR in lymph nodes.

## Nc1nc2c(ncn2[C@@H]2O[C@@H]3COP(=O)(O)O[C@H]4[C@@H](O)[C@H](n5cnc6c(=O)[nH]c(N)nc65)O[C@@H]4COP(=O)(O)O[C@H]3[C@H]2O)c(=O)[nH]1 [c-di-GMP, cyclic-di-GMP]
FITC-CAR-T
  proliferation of CAR-T cells in LN: Minimal proliferation

## fluorescein isothiocyanate [Free FITC]
[1]
  time in which FITC signal was lost in LN: ≤ 24 h

B1: FITC-OVA: FITC conjugated to the carrier protein OVA (conjugate, UniProt P01012 2-386, looked up)
Ovalbumin: GSIGAASMEFCFDVFKELKVHHANENIFYCPIAIMSALAMVYLGAKDSTRTQINKVVRFDKLPGFGDSIEAQCGTSVNVHSSLRDILNQITKPNDVYSFSLASRLYAEERYPILPEYLQCVKELYRGGLEPINFQTAADQARELINSWVESQTNGIIRNVLQPSSVDSQTAMVLVNAIVFKGLWEKAFKDEDTQAMPFRVTEQESKPVQMMYQIGLFRVASMASEKMKILELPFASGTMSMLVLLPDEVSGLEQLESIINFEKLTEWTSSNVMEERKIKVYLPRMKMEEKYNLTSVLMAMGITDVFSSSANLSGISSAESLKISQAVHAAHAEINEAGREVVGSAEAGVDAASVSEEFRADHPFLFCIKHIATNAVLFFGRCVSP
modifications: FITC
[2]
  antibody response against FITC: no antibody response was observed
